This is an account of results in US20140017701A1, “CHIMERIC PDK1 KINASES” (priority 2011, published 2014).

For this experiment, the target named is T1, GST-PDK1 1-556 with PIF-pocket mutated to mimic PKCz (Homo sapiens, UniProt O15530, F157L/I118V/I119H/L113V/R131K/T128Q/T148C/V124I).
T1 construct: a GST-PDK1 1-556 (full length, without the dm mutation); made in house; host or cells: HEK293 (general method for GST-fused kinases)
T1 sequence (O15530 1-556 L113V/I118V/I119H/V124I/T128Q/R131K/T148C/F157L): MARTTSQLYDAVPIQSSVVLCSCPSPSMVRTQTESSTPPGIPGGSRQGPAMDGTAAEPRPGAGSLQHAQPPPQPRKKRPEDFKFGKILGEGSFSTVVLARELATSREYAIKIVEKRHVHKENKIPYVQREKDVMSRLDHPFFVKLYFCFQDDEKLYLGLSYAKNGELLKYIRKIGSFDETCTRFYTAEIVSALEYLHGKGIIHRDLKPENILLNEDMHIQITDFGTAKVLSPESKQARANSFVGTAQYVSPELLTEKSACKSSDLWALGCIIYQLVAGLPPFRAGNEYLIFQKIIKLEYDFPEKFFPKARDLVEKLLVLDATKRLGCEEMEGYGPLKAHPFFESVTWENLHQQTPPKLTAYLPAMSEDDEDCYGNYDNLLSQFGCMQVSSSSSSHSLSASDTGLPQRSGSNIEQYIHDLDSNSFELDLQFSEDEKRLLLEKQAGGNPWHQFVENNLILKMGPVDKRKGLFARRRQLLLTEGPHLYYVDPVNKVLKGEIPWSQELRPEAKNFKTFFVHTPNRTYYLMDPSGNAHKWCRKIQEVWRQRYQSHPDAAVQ
Description: Activity assay with full length GST-PDK1 1-556 mutated to mimic the PIF-pocket of PKCz. In kind it is biochemical. The following applies: without the dm mutation. An excerpt: Thus, non-mutated PDK1 50-359 protein and other constructs of PDK1 lacking the (dm) mutations, when mutated at the PIF-pocket to mimic the PIF-pocket of other AGC kinases, are also expected to transduce the conformational change similarly to the dmPDK1 50-359. […] The preferred construct for mutagenesis to create the chimeric proteins is dmPDK1 50-359. Also preferred is the use of PDK1 50-359 which can be produced in high quality for crystallization studies or other suitable constructs, for example PDK1 76-359 that corresponds to a sequence of aminoacids observed in the crystals of PDK1 in different crystal packings.

Structures are written as SMILES.

In the case of `Cl.O=C(O)CC(Cc1nc2cc(-c3ccccc3)ccc2[nH]1)c1ccc(Cl)cc1` (stereo not shown) [PS168], the “Effect on activity of GST-PDK1 1-556 mutated to mimic PIF-pocket of PKCz” value is listed as “inhibited”.
